From patent publication EP0385712B1, “A peptide for use in the manufacture of a composition for prevention or treatment of a condition susceptible to treatment with a platelet aggregation inhibition agent” (ASAHI KASEI KOGYO KABUSHIKI KAISHA, priority 1989, dated 1994)
Positions of bridges follow the written chain, without caps; N, C: chain ends. Residues, ends and D or L forms follow the SMILES beside them.

System: rat, Wister strain
Test: Acute toxicity in rat, intravenous
Type: in vivo
Details: body weight 80 - 90 g, 80 µg/kg intravenously in the tail, solution in 0.1 M aqueous sodium acetate containing 0.1 % bovine serum albumin
Protocol: A solution of each of the following compounds in 0.1 M aqueous sodium acetate containing 0.1 % bovine serum albumin is administered into a rat, Wister strain, body weight 80 - 90 g, 80 µg/kg, intraveneously in the tail.

Row | Compound | Acute toxicity (deaths)
1 | p - CGRP | No deaths were observed
2 | desalanyl-deamino- [Asn³, Asp¹⁴, Gly²³] -h -α-CGRP | No deaths were observed
3 | r - α - CGRP | No deaths were observed
4 | r - β- CGRP | No deaths were observed
5 | CC(C)C[C@H](NC(=O)[C@H](CCCNC(=N)N)NC(=O)[C@H](Cc1c[nH]cn1)NC(=O)[C@@H](NC(=O)[C@@H](NC(=O)[C@@H]1CSSC[C@H](NC(=O)[C@H](C)N)C(=O)N[C@@H](CC(=O)O)C(=O)N[C@@H]([C@@H](C)O)C(=O)N[C@@H](C)C(=O)N[C@@H]([C@@H](C)O)C(=O)N1)C(C)C)[C@@H](C)O)C(=O)N[C@@H](C)C(=O)N[C@@H](CC(=O)O)C(=O)N[C@@H](CC(C)C)C(=O)N[C@@H](CC(C)C)C(=O)N[C@@H](CO)C(=O)N[C@@H](CCCNC(=N)N)C(=O)N[C@@H](CO)C(=O)NCC(=O)NCC(=O)N[C@H](C(=O)N[C@H](C(=O)N[C@@H](CCCCN)C(=O)N[C@@H](CC(N)=O)C(=O)N[C@@H](CC(N)=O)C(=O)N[C@@H](Cc1ccccc1)C(=O)N[C@H](C(=O)N1CCC[C@H]1C(=O)N[C@H](C(=O)N[C@@H](CC(N)=O)C(=O)N[C@H](C(=O)NCC(=O)N[C@@H](CO)C(=O)N[C@@H](CCCCN)C(=O)N[C@@H](C)C(=O)N[C@@H](Cc1ccccc1)C(N)=O)C(C)C)[C@@H](C)O)C(C)C)C(C)C)C(C)C [[Asp¹⁴ ] -h -α-CGRP] (H-ACDTATCVTHRLADLLSRSGGVVKNNFVPTNVGSKAF-NH2; disulfide 2-7) | No deaths were observed
6 | CC(C)C[C@H](NC(=O)[C@H](CCCNC(=N)N)NC(=O)[C@H](Cc1c[nH]cn1)NC(=O)[C@@H](NC(=O)[C@@H](NC(=O)[C@@H]1CSSC[C@H](NC(=O)[C@H](C)N)C(=O)N[C@@H](CC(N)=O)C(=O)N[C@@H]([C@@H](C)O)C(=O)N[C@@H](C)C(=O)N[C@@H]([C@@H](C)O)C(=O)N1)C(C)C)[C@@H](C)O)C(=O)N[C@@H](C)C(=O)N[C@@H](CC(=O)O)C(=O)N[C@@H](Cc1ccccc1)C(=O)N[C@@H](CC(C)C)C(=O)N[C@@H](CO)C(=O)N[C@@H](CCCNC(=N)N)C(=O)N[C@@H](CO)C(=O)NCC(=O)NCC(=O)N[C@H](C(=O)N[C@H](C(=O)N[C@@H](CCCCN)C(=O)N[C@@H](CC(N)=O)C(=O)N[C@@H](CC(N)=O)C(=O)N[C@@H](Cc1ccccc1)C(=O)N[C@H](C(=O)N1CCC[C@H]1C(=O)N[C@H](C(=O)N[C@@H](CC(N)=O)C(=O)N[C@H](C(=O)NCC(=O)N[C@@H](CO)C(=O)N[C@@H](CCCCN)C(=O)N[C@@H](C)C(=O)N[C@@H](Cc1ccccc1)C(N)=O)C(C)C)[C@@H](C)O)C(C)C)C(C)C)C(C)C [[Asn³, Asp¹⁴, Phe¹⁵] -h -α-CGRP] (H-ACNTATCVTHRLADFLSRSGGVVKNNFVPTNVGSKAF-NH2; disulfide 2-7) | No deaths were observed
7 | desalanyl-deamino- [Asn³, Asp¹⁴, Phe¹⁵] -h -α-CGRP | No deaths were observed
8 | desalanyl-deamino- [Glu¹⁴ ] -h -α-CGRP | No deaths were observed
9 | c - CGRP | No deaths were observed
10 | CC(C)C[C@H](NC(=O)[C@H](CCCNC(=N)N)NC(=O)[C@H](Cc1c[nH]cn1)NC(=O)[C@@H](NC(=O)[C@@H](NC(=O)[C@@H]1CSSC[C@H](NC(=O)[C@H](C)N)C(=O)N[C@@H](CC(N)=O)C(=O)N[C@@H]([C@@H](C)O)C(=O)N[C@@H](C)C(=O)N[C@@H]([C@@H](C)O)C(=O)N1)C(C)C)[C@@H](C)O)C(=O)N[C@@H](C)C(=O)NCC(=O)N[C@@H](Cc1ccccc1)C(=O)N[C@@H](CC(C)C)C(=O)N[C@@H](CO)C(=O)N[C@@H](CCCNC(=N)N)C(=O)N[C@@H](CO)C(=O)NCC(=O)NCC(=O)N[C@H](C(=O)NCC(=O)N[C@@H](CCCCN)C(=O)N[C@@H](CC(N)=O)C(=O)N[C@@H](CC(N)=O)C(=O)N[C@@H](Cc1ccccc1)C(=O)N[C@H](C(=O)N1CCC[C@H]1C(=O)N[C@H](C(=O)N[C@@H](CC(N)=O)C(=O)N[C@H](C(=O)NCC(=O)N[C@@H](CO)C(=O)N[C@@H](CCCCN)C(=O)N[C@@H](C)C(=O)N[C@@H](Cc1ccccc1)C(N)=O)C(C)C)[C@@H](C)O)C(C)C)C(C)C [[Asn³, Phe¹⁵, Gly²³] -h -α-CGRP] (H-ACNTATCVTHRLAGFLSRSGGVGKNNFVPTNVGSKAF-NH2; disulfide 2-7) | No deaths were observed
11 | desalanyl- [Asu^2,⁷] - c-CGRP | No deaths were observed
12 | CC(C)C[C@H](NC(=O)[C@H](CCCNC(=N)N)NC(=O)[C@H](Cc1c[nH]cn1)NC(=O)[C@@H](NC(=O)[C@@H](NC(=O)[C@@H]1CSSC[C@H](NC(=O)[C@H](C)N)C(=O)N[C@@H](CC(N)=O)C(=O)N[C@@H]([C@@H](C)O)C(=O)N[C@@H](C)C(=O)N[C@@H]([C@@H](C)O)C(=O)N1)C(C)C)[C@@H](C)O)C(=O)N[C@@H](C)C(=O)N[C@@H](CC(=O)O)C(=O)N[C@@H](CC(C)C)C(=O)N[C@@H](CC(C)C)C(=O)N[C@@H](CO)C(=O)N[C@@H](CCCNC(=N)N)C(=O)N[C@@H](CO)C(=O)NCC(=O)NCC(=O)N[C@H](C(=O)NCC(=O)N[C@@H](CCCCN)C(=O)N[C@@H](CC(N)=O)C(=O)N[C@@H](CC(N)=O)C(=O)N[C@@H](Cc1ccccc1)C(=O)N[C@H](C(=O)N1CCC[C@H]1C(=O)N[C@H](C(=O)N[C@@H](CC(N)=O)C(=O)N[C@H](C(=O)NCC(=O)N[C@@H](CO)C(=O)N[C@@H](CCCCN)C(=O)N[C@@H](C)C(=O)N[C@@H](Cc1ccccc1)C(N)=O)C(C)C)[C@@H](C)O)C(C)C)C(C)C [[Asn³, Asp¹⁴, Gly²³] -h -α-CGRP] (H-ACNTATCVTHRLADLLSRSGGVGKNNFVPTNVGSKAF-NH2; disulfide 2-7) | No deaths were observed
13 | desalanyl-deamino- [Asn³, Glu¹⁴, Gly²³] -h -α-CGRP | No deaths were observed
14 | desalanyl-deamino-c-CGRP | No deaths were observed
15 | CC(C)C[C@H](NC(=O)[C@H](CCCNC(=N)N)NC(=O)[C@H](Cc1c[nH]cn1)NC(=O)[C@@H](NC(=O)[C@@H](NC(=O)[C@@H]1CSSC[C@H](NC(=O)[C@H](C)N)C(=O)N[C@@H](CC(N)=O)C(=O)N[C@@H]([C@@H](C)O)C(=O)N[C@@H](C)C(=O)N[C@@H]([C@@H](C)O)C(=O)N1)C(C)C)[C@@H](C)O)C(=O)N[C@@H](C)C(=O)N[C@@H](CCC(=O)O)C(=O)N[C@@H](CC(C)C)C(=O)N[C@@H](CC(C)C)C(=O)N[C@@H](CO)C(=O)N[C@@H](CCCNC(=N)N)C(=O)N[C@@H](CO)C(=O)NCC(=O)NCC(=O)N[C@H](C(=O)NCC(=O)N[C@@H](CCCCN)C(=O)N[C@@H](CC(N)=O)C(=O)N[C@@H](CC(N)=O)C(=O)N[C@@H](Cc1ccccc1)C(=O)N[C@H](C(=O)N1CCC[C@H]1C(=O)N[C@H](C(=O)N[C@@H](CC(N)=O)C(=O)N[C@H](C(=O)NCC(=O)N[C@@H](CO)C(=O)N[C@@H](CCCCN)C(=O)N[C@@H](C)C(=O)N[C@@H](Cc1ccccc1)C(N)=O)C(C)C)[C@@H](C)O)C(C)C)C(C)C [[Asn³, Glu¹⁴, Gly²³] -h -α-CGRP] (H-ACNTATCVTHRLAELLSRSGGVGKNNFVPTNVGSKAF-NH2; disulfide 2-7) | No deaths were observed
16 | desalanyl- [Asu^2,7] -h - α-CGRP | No deaths were observed
17 | h - β- CGRP | No deaths were observed
